Results as given in patent US7208506B2, “Heteroarylethenyl derivatives, their manufacture and use as pharmaceutical agents” (Hoffmann-La Roche Inc., priority 2005, dated 2007).
Structures can show the parent of a compound that is named as a salt.

tested on: HCT 116 cells; assay: CellTiter-Glo Luminescent Cell Viability Assay in HCT 116 cells; format: cell-based; conditions: Homo sapiens, HCT-116, 120 h, HCT 116 human colon carcinoma cell viability, 120 h (5 days) incubation, 10 concentrations 30 μM to 0.0015 μM, triplicate
Text: CellTiter-Glo™ Assay in HCT 116 Cells
The CellTiter-Glo™ Luminescent Cell Viability Assay (Promega) is a homogeneous method of determining the number of viable cells in culture based on quantitation of the ATP present, which signals the presence of metabolically active cells.
HCT 116 cells (human colon carcinoma, ATCC-No. CCl1-247) were cultivated in RPMI 1640 medium with GlutaMAX™ I (Invitrogen, Cat-No. 61870-010), 2.5% Fetal Calf Serum (FCS, Sigma Cat-No. F4135 (FBS)); 100 Units/ml penicillin/100 μg/ml streptomycin (=Pen/Strep from Invitrogen Cat. No. 15140). For the assay the cells were seeded in 384 well plates, 1000 cells per well, in the same medium. The next day the test compounds were added in various concentrations ranging from 30 μM to 0.0015 μM (10 concentrations, 1:3 diluted). After 5 days the CellTiter-Glo™ assay was done according to the instructions of the manufacturer (CellTiter-Glo™ Luminescent Cell Viability Assay, from Promega). In brief: the cell-plate was equilibrated to room temperature for approximately 30 minutes and than the CellTiter-Glo™ reagent was added. The contents were carefully mixed for 15 minutes to induce cell lysis. After 45 minutes the luminescent signal was measured in Victor 2, (scanning multiwell spectrophotometer, Wallac).
Medium: RPMI 1640 with GlutaMAX™ I (Invitrogen, Cat-Nr. 61870), 5% FCS (Sigma Cat.-No. F4135), Pen/Strep (Invitrogen, Cat No. 15140).
HCT116 (ATCC-No. CCl-247): 1000 cells in 60 μl per well of 384 well plate (Greiner 781098, μClear-plate white)
After seeding incubate plates 24 h at 37° C., 5% CO2
2nd. Day: Induction (Treatment with Compounds, 10 Concentrations):
In order to achieve a final concentration of 30 μM as highest concentration 3,5 μl of 10 mM compound stock solution were added directly to 163 μl media. Then step e) of the dilution procedure described below, was followed.
In order to achieve the second highest to the lowest concentrations, a serial dilution with dilution steps of 1:3 was followed according to the procedure (a–e) as described here below: • a) for the second highest concentration add 10 μl of 10 mM stock solution of compound to 20 μl dimethylsulfoxide (DMSO) • b) dilute 8×1:3 (always 10 μl to 20 μl DMSO) in this DMSO dilution row (results in 9 wells with concentrations from 3333.3 μM to 0.51 μM) • c) dilute each concentration 1: 47.6 (3.5 μl compound dilution to 163 μl media) • e) add 10 μl of every concentration to 60 μl media in the cell plate resulting in final concentration of DMSO : 0.3% in every well and resulting in 10 final concentration of compounds ranging from 30 μM to 0.0015 μM. • Each compound is tested in triplicate. • Incubate 120 h (5 days) at 37° C., 5% CO2
Analysis: • Add 30 μl CellTiter-Glo™ Reagent per well, • shake 15 minutes at room temperature • incubate further 45 minutes at room temperature without shaking
Measurement: • Victor 2 scanning multiwell spectrophotometer (Wallac), Luminescence mode (0.5 sec/read, 477 nm) • Determine IC50 using a non-linear curve fit (XLfit software (ID Business Solution Ltd., Guilford, Surrey, UK))

SMILES	IC50 [µM]
COc1cc(Cl)ccc1C(=O)NS(=O)(=O)/C=C/c1ccsc1 [Example 3-4, (E)-2-Thiophen-3-yl-ethenesulfonic acid 4-chloro-2-methoxy-benzoylamide; sodium salt]	0.5 to 15
O=C(NS(=O)(=O)/C=C/c1ccccn1)c1ccc(F)cc1Cl [Example 2-6, (E)-2-Pyridin-2-yl-ethenesulfonic acid 2-chloro-4-fluoro-benzoylamide; sodium salt]	0.5 to 15
O=C(NS(=O)(=O)/C=C/c1nccs1)c1ccc(Cl)cc1Cl [Example 2-22, (E)-2-Thiazol-2-yl-ethenesulfonic acid 2,4-dichloro-benzoylamide; sodium salt]	0.5 to 15
O=C(NS(=O)(=O)/C=C/c1cccnc1Cl)c1ccc(Cl)cc1Cl [Example 2-21, (E)-2-(2-Chloro-pyridin-3-yl)-ethenesulfonic acid 2,4-dichloro-benzoylamide; sodium salt]	0.5 to 15
O=C(NS(=O)(=O)/C=C/c1ccsc1)c1ccc(Br)cc1Cl [Example 3-11, (E)-2-Thiophen-3-yl-ethenesulfonic acid 4-bromo-2-chloro-benzoylamide; sodium salt]	0.5 to 15
Cc1cc(Br)ccc1C(=O)NS(=O)(=O)/C=C/c1ccccn1 [Example 4-4, (E)-2-Pyridin-2-yl-ethenesulfonic acid 4-bromo-2-methyl-benzoylamide; sodium salt]	0.5 to 15
Cc1cc(Cl)ccc1C(=O)NS(=O)(=O)/C=C/c1cccnc1 [Example 4-8, (E)-2-Pyridin-3-yl-ethenesulfonic acid 4-chloro-2-methyl-benzoylamide; sodium salt]	0.5 to 15
O=C(NS(=O)(=O)/C=C/c1csc2ccccc12)c1ccc(Cl)cc1Cl [Example 2-27, (E)-2-Benzo[b]thiophen-3-yl-ethenesulfonic acid 2,4-dichloro-benzoylamide; sodium salt]	0.5 to 15
Cc1cc(Cl)ccc1C(=O)NS(=O)(=O)/C=C/c1csc2ccccc12 [Example 4-18, (E)-2-Benzo[b]thiophen-3-yl-ethenesulfonic acid 4-chloro-2-methyl-benzoylamide; sodium salt]	0.5 to 15
Cc1cccc(/C=C/S(=O)(=O)NC(=O)c2ccc(F)cc2Cl)n1 [Example 2-25, (E)-2-(6-Methyl-pyridin-2-yl)-ethenesulfonic acid 2-chloro-4-fluoro-benzoylamide; sodium salt]	0.5 to 15
O=C(NS(=O)(=O)/C=C/c1ccccn1)c1ccc(F)cc1C(F)(F)F [Example 2-7, (E)-2-Pyridin-2-yl-ethenesulfonic acid 4-fluoro-2-trifluoromethyl-benzoylamide; sodium salt]	0.5 to 15
O=C(NS(=O)(=O)/C=C/c1ccc(Cl)nc1)c1ccc(Cl)cc1Cl [Example 2-20, (E)-2-(6-Chloro-pyridin-3-yl)-ethenesulfonic acid 2,4-dichloro-benzoylamide; sodium salt]	0.5 to 15
Cc1cc(Cl)ccc1C(=O)NS(=O)(=O)/C=C/c1ccsc1 [Example 3-2, (E)-2-Thiophen-3-yl-ethenesulfonic acid 4-chloro-2-methyl-benzoylamide; sodium salt]	0.5 to 15
O=C(NS(=O)(=O)/C=C/c1csc2ccccc12)c1ccc(C(F)(F)F)cc1C(F)(F)F [Example 2-29, (E)-2-Benzo[b]thiophen-3-yl-ethenesulfonic acid 2,4-ditrifluoromethyl-benzoylamide; sodium salt]	0.5 to 15
O=C(NS(=O)(=O)/C=C/c1ccsc1)c1ccc(F)cc1C(F)(F)F [Example 1-5, (E)-2-Thiophen-3-yl-ethenesulfonic acid 4-fluoro-2-trifluoromethyl-benzoylamide; sodium salt]	0.5 to 15
Cc1cc(Cl)ccc1C(=O)NS(=O)(=O)/C=C/c1ccccn1 [Example 4-2, (E)-2-Pyridin-2-yl-ethenesulfonic acid 4-chloro-2-methyl-benzoylamide; sodium salt]	0.5 to 15
Cc1cccc(/C=C/S(=O)(=O)NC(=O)c2ccc(F)cc2Br)n1 [Example 4-15, (E)-2-(6-Methyl-pyridin-2-yl)-ethenesulfonic acid 2-bromo-4-fluoro-benzoylamide; sodium salt]	0.5 to 15
Cc1cc(F)ccc1C(=O)NS(=O)(=O)/C=C/c1cccs1 [Example 5-1, (E)-2-Thiophen-2-yl-ethenesulfonic acid 4-fluoro-2-methyl-benzoylamide]	0.5 to 15
